Measured values reported in US12060335B1, “2-(benzo[d]oxazol-2-yl)-N′-(3,5-dichlorobenzoyloxy)acetimidamide as an antimicrobial compound” (KING FAISAL UNIVERSITY, priority 2023, dated 2024).

How the values were obtained:
Bacillus Cereus = test: Agar plate disc-diffusion, antibacterial activity by measuring inhibition zone; assay type: cell-based; details: Gram positive, nutrient agar, 37° C., 48 hours
Protocol: (§1) The agar plate disc-diffusion method was applied. […] The discs were then placed onto the surface of agar plates (nutrient agar for bacteria and Sabouraud's dextrose agar for fungi) seeded with the test organism. Each plate contained 15 mL of the agar medium, previously seeded with 0.2 mL of the broth culture of each organism pregrown for 18 hours. The plates were incubated at 37° C. for 48 hours, and 72 hours for fungi. The inhibition zones was measured in mm. Discs impregnated with DMSO were used as a control, and its inhibition zone was subtracted from the tested compound actual inhibition zone.

Staphylococcus aureus = test: as above; assay type: cell-based; details: Gram positive, nutrient agar, 37° C., 48 hours
Protocol: as §1

Aspergillus flavus = test: Agar plate disc-diffusion, antifungal activity by measuring inhibition zone; assay type: cell-based; details: Sabouraud's dextrose agar, 72 hours
Protocol: as §1

[1] = test system: Chrysosporium keratinophilum; test: as above; assay type: cell-based; details: Sabouraud's dextrose agar, 72 hours
Protocol: as §1

Escherichia coli = test: Agar plate disc-diffusion, antibacterial activity by measuring inhibition zone; assay type: cell-based; details: Gram negative, nutrient agar, 37° C., 48 hours
Protocol: (§2) The agar plate disc-diffusion method was applied. Sterilized filter papers (6 mm in diameter) were wetted with 10 μL of a solution 2-(benzo[d]oxazol-2-yl)-N′-(3,5-dichlorobenzoyloxy)acetimidamide (3) to be tested, containing 10 mg/mL in DMSO, and the discs were allowed to air dry. The discs were then placed onto the surface of agar plates (nutrient agar for bacteria and Sabouraud's dextrose agar for fungi) seeded with the test organism. Each plate contained 15 mL of the agar medium, previously seeded with 0.2 mL of the broth culture of each organism pregrown for 18 hours. The plates were incubated at 37° C. for 48 hours, and 72 hours for fungi. The inhibition zones was measured in mm. Discs impregnated with DMSO were used as a control, and its inhibition zone was subtracted from the tested compound actual inhibition zone.

Pseudomonas aeruginosa = test: as above; assay type: cell-based; details: Gram negative, nutrient agar, 37° C., 48 hours
Protocol: as §2

different microbes = test: Antimicrobial activity screen, overall statement; assay type: cell-based; details: against different microbes (bacteria and fungi of Tables 1 and 2)
Protocol: as §2

[2] = A = concentration of comp. = 10,000 μL
[3] = B = concentration of comp. = 30,000 μL
[4] = C = concentration of comp. = 50,000 μL

Structure (SMILES)	inhibition zone (Bacillus Cereus; [2])	inhibition zone (Bacillus Cereus; [3])	inhibition zone (Bacillus Cereus; C =)	inhibition zone (Staphylococcus aureus; [2])	inhibition zone (Staphylococcus aureus; [3])	inhibition zone (Staphylococcus aureus; [4])	inhibition zone (Aspergillus flavus; [2])	inhibition zone (Aspergillus flavus; [3])	inhibition zone (Aspergillus flavus; [4])	inhibition zone [1, 2]	inhibition zone [1, 3]	inhibition zone [1, 4]	inhibition zone (Escherichia coli; [2])	inhibition zone (Escherichia coli; [3])	inhibition zone (Escherichia coli; [4])	inhibition zone (Pseudomonas aeruginosa; [2])	inhibition zone (Pseudomonas aeruginosa; [3])	inhibition zone (Pseudomonas aeruginosa; C =)	melting point	antimicrobial activities (different microbes)
O=C(O)c1cn(C2CC2)c2cc(N3CCNCC3)c(F)cc2c1=O [Cip., ciprofloxacin, reference compound]	29 mm	30 mm	42 mm	43 mm	44 mm	53 mm	29 mm	30 mm	42 mm	29 mm	30 mm	53 mm	30 mm	39 mm	60 mm	29 mm	30 mm	53 mm		
N/C(Cc1nc2ccccc2o1)=N\OC(=O)c1cc(Cl)cc(Cl)c1 [Compound 3, 2-(benzo[d]oxazol-2-yl)-N′-(3,5-dichlorobenzoyloxy)acetimidamide]	20 mm	22 mm	30 mm	19 mm	21 mm	29 mm	20 mm	22 mm	29 mm	27 mm	29 mm	49 mm	26 mm	34 mm	46 mm	25 mm	27 mm	43 mm	158 to 159 °C	excellent antimicrobial activities
